Assay [1] relates to HT1080 cells. Briefly: Cell viability CCK-8 assay. Type of assay: cell-based, human. Conditions: Homo sapiens, HT-1080, CCK-8, 48 h, read-out: IC50 (cytotoxicity). The method, boiled down:
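HT1080 cells seeded 24 h, then exposed to serial compound dilutions (final DMSO <0.5% v/v) for 48 or 72 h at 37 °C. Viability by CCK-8 absorbance at 450 nm; IC50 from nonlinear regression, ≥3 independent repeats.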

For assay [2], the target named is T1, GPX4 (Homo sapiens, UniProt P36969).
T1 sequence (P36969 1-170 isoform P36969-2): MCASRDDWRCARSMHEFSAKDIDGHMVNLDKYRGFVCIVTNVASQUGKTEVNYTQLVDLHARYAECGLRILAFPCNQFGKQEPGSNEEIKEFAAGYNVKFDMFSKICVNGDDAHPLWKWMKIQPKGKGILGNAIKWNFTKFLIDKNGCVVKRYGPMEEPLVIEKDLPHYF
Briefly: Quantitative proteomics of HT1080 cells. Type of assay: cell-based. More on the design: determine the changes in the endogenous levels of GPX4 by western blot assay; endogenous in cells; host or cells: HT1080 fibrosarcoma cells, including siRNA-knockdown derivatives. To be noted: 2 µM, 18 h. As for the experimental part:
The proteomics data were generated by Shanghai Bioprofile Co., Ltd. After treatment with compound GDAz‐3 (2 µM) or DMSO for 18 h, the samples were collected. LC‐MS/MS analysis was conducted using an Orbitrap Astral zoom mass spectrometer paired with a Vanquish Neo UHPLC system (Thermo Fisher Scientific). Peptides from each sample were loaded into a column (50 cm Low‐Load µPAC Neo HPLC Column, Thermo Scientific) at a flow rate of 2.2 µL min^−1. The reversed‐phase high‐performance liquid chromatography (RP‐HPLC) mobile phases consisted of solvent A (0.1% formic acid in water) and solvent B (0.1% formic acid in 80% acetonitrile). Peptide elution was performed over 4.8 min with a linear gradient of buffer B at a flow rate 1.25 µL min^−1. The linear gradient was programmed as follows: 0–0.1 min, an increase from 4% to 6% solvent B; 0.1–1.1 min, from 6% to 12% buffer B; 1.1–4.3 min, from 12% to 25% buffer B; 4.3–6.1 min, from 25% to 45% buffer B; 6.1–6.5 min, from 45% to 99% buffer B; 6.5–8 min, buffer B maintained at 99%. The eluted peptides were subsequently analyzed on a Orbitrap Astral mass spectrometer. The DIA method consisted of a full scan m/z range of 380–980 at resolution 240 000 with AGC target of 500% and 5 ms injection time. […] Full MS scan spectra were recorded in profile mode, whereas DIA scan spectra were collected in centroid mode.

The target of assay [3] is T1, GPX4. Put plainly: Ubiquitination assay of GPX4 in HT1080 cells. Conditions: 1 µM, 12 h. More on the design: determine the changes in the endogenous levels of GPX4 by western blot assay; endogenous in cells; host or cells: HT1080 fibrosarcoma cells, including siRNA-knockdown derivatives. The assay is classed as cell-based. As for the experimental part:
HT1080 cells were seeded in 15 cm culture dishes and allowed to adhere overnight. Then, the cells were treated with either 1 µM GDAz‐3 or an equivalent volume of DMSO for 12 h. Next, the proteasome inhibitor MG‐132 (5 µM) was added, and the cells were further incubated for 6 h. Once the incubation was completed, the cells were harvested and subjected to lysis using an IP lysis solution (#P0013J, Beyotime, Shanghai, China) to extract proteins. Then, the cell lysates were incubated with the GPX4 antibody (Proteintech, #67763‐1‐Ig, 1:100) overnight at 4 °C. Subsequently, protein A/G‐magnetic beads (#P2179, Beyotime, Shanghai, China) were added, and the mixture was incubated at 4 °C for 2 h on a rotator. After incubation, the beads were washed four times with immunoprecipitation buffer and then boiled in 1× loading buffer. The protein samples were then subjected to SDS‐PAGE analysis to evaluate the interactions between the target proteins. Finally, western blotting was used to detect proteins of interest in the co‐immunoprecipitation products. The ubiquitin assay was carried out under denaturing conditions.

The structures appear in SMILES notation.

On to `COc1ccc(-c2nc(-c3cc(C(F)(F)F)cc(C(F)(F)F)c3)n(Cc3ccc(C(=O)NCCOCCOCCOCCn4cc(COc5ccc(N(C(=O)CCl)C(C(=O)NCCc6ccccc6)c6cccs6)cc5Cl)nn4)cc3)c2-c2ccc(OC)cc2)cc1` (stereo not drawn) [GDAz-3, 4-((2-(3,5-bis(trifluoromethyl)phenyl)-4,5-bis(4-methoxyphenyl)-1H-imidazol-1-yl)methyl)-N-(2-(2-(2-(2-(4-((2-chloro-4-(2-chloro-N-(2-oxo-2-(phenethylamino)-1-(thiophen-2-yl)ethyl)acetamido)phenoxy)methyl)-1H-1,2,3-triazol-1-yl)ethoxy)ethoxy)ethoxy)ethyl)benzamide], for which, in assay [1], the IC50 (usually the concentration at which inhibition is half-maximal) was 280 nM. The “Proteomics profiling, GPX4 abundance” value in assay [2] is on record as “clear degradation of GPX4”. Further, in assay [3], the “Ubiquitination of GPX4” value is reported as “obviously increase the ubiquitination of GPX4”.

The values above are taken from publication PMC12948223, “HSP70 Interactome‐Mediated Proteolysis Targeting Chimera (HSP70‐PROTAC) for Ferroptosis‐Driven Cancer Treatment” (Advanced Science, 2025).
